Test results from patent US20150094474A1, “AGRICULTURAL CHEMICALS” (Redx Pharma Ltd., priority 2012, published 2015).

Key:
peas = assay: Herbicidal bioassay, peas (% necrosis); format: in vivo
Outline: (§1)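 Scoring of % necrosis followed EPPO guideline PP1/135 at specified growth intervals, five replicates per species and treatment. Plants at the 2-4 true leaf stage received Potter-tower sprays of DMSO-diluted compounds across six levels from 0.0001% to 0.05%, with water and DMSO controls.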

barley = assay: Herbicidal bioassay, barley (% necrosis); format: in vivo
Outline: as §1

## CC(=O)OCC(C)Oc1ccc(Oc2ccc(C(F)(F)F)cn2)cc1 (stereo not drawn) [Compound 63, 2-[4-[[5-(Trifluoromethyl)-2-pyridyl]oxy]phenoxy]propyl acetate]
peas; Dose 0.000001, Day 0
  Sum of % necrosis in Peas: C (less than 50% necrosis)
peas; Dose 0.000001, Day 1
  Sum of % necrosis in Peas: C (less than 50% necrosis)
peas; Dose 0.000001, Day 3
  Sum of % necrosis in Peas: C (less than 50% necrosis)
peas; Dose 0.000001, Day 7
  Sum of % necrosis in Peas: C (less than 50% necrosis)
peas; Dose 0.000001, Day 10
  Sum of % necrosis in Peas: B (50%-80% necrosis)
peas; Dose 0.000001, Day 14
  Sum of % necrosis in Peas: B (50%-80% necrosis)
peas; Dose 0.000001, Day 21
  Sum of % necrosis in Peas: A (over 80% necrosis)
peas; Dose 0.000005, Day 0
  Sum of % necrosis in Peas: C (less than 50% necrosis)
peas; Dose 0.000005, Day 1
  Sum of % necrosis in Peas: C (less than 50% necrosis)
peas; Dose 0.000005, Day 3
  Sum of % necrosis in Peas: C (less than 50% necrosis)
peas; Dose 0.000005, Day 7
  Sum of % necrosis in Peas: C (less than 50% necrosis)
peas; Dose 0.000005, Day 10
  Sum of % necrosis in Peas: B (50%-80% necrosis)
peas; Dose 0.000005, Day 14
  Sum of % necrosis in Peas: B (50%-80% necrosis)
peas; Dose 0.000005, Day 21
  Sum of % necrosis in Peas: A (over 80% necrosis)
peas; Dose 0.00001, Day 0
  Sum of % necrosis in Peas: C (less than 50% necrosis)
peas; Dose 0.00001, Day 1
  Sum of % necrosis in Peas: C (less than 50% necrosis)
peas; Dose 0.00001, Day 3
  Sum of % necrosis in Peas: C (less than 50% necrosis)
peas; Dose 0.00001, Day 7
  Sum of % necrosis in Peas: C (less than 50% necrosis)
peas; Dose 0.00001, Day 10
  Sum of % necrosis in Peas: B (50%-80% necrosis)
peas; Dose 0.00001, Day 14
  Sum of % necrosis in Peas: B (50%-80% necrosis)
peas; Dose 0.00001, Day 21
  Sum of % necrosis in Peas: A (over 80% necrosis)
peas; Dose 0.00005, Day 0
  Sum of % necrosis in Peas: C (less than 50% necrosis)
peas; Dose 0.00005, Day 1
  Sum of % necrosis in Peas: C (less than 50% necrosis)
peas; Dose 0.00005, Day 3
  Sum of % necrosis in Peas: C (less than 50% necrosis)
peas; Dose 0.00005, Day 7
  Sum of % necrosis in Peas: B (50%-80% necrosis)
peas; Dose 0.00005, Day 10
  Sum of % necrosis in Peas: A (over 80% necrosis)
peas; Dose 0.00005, Day 14
  Sum of % necrosis in Peas: A (over 80% necrosis)
peas; Dose 0.00005, Day 21
  Sum of % necrosis in Peas: A (over 80% necrosis)
peas; Dose 0.0001, Day 0
  Sum of % necrosis in Peas: C (less than 50% necrosis)
peas; Dose 0.0001, Day 1
  Sum of % necrosis in Peas: C (less than 50% necrosis)
peas; Dose 0.0001, Day 3
  Sum of % necrosis in Peas: C (less than 50% necrosis)
peas; Dose 0.0001, Day 7
  Sum of % necrosis in Peas: C (less than 50% necrosis)
peas; Dose 0.0001, Day 10
  Sum of % necrosis in Peas: C (less than 50% necrosis)
peas; Dose 0.0001, Day 14
  Sum of % necrosis in Peas: B (50%-80% necrosis)
peas; Dose 0.0001, Day 21
  Sum of % necrosis in Peas: B (50%-80% necrosis)
peas; Dose 0.0005, Day 0
  Sum of % necrosis in Peas: C (less than 50% necrosis)
peas; Dose 0.0005, Day 1
  Sum of % necrosis in Peas: C (less than 50% necrosis)
peas; Dose 0.0005, Day 3
  Sum of % necrosis in Peas: C (less than 50% necrosis)
peas; Dose 0.0005, Day 7
  Sum of % necrosis in Peas: C (less than 50% necrosis)
peas; Dose 0.0005, Day 10
  Sum of % necrosis in Peas: B (50%-80% necrosis)
peas; Dose 0.0005, Day 14
  Sum of % necrosis in Peas: B (50%-80% necrosis)
peas; Dose 0.0005, Day 21
  Sum of % necrosis in Peas: B (50%-80% necrosis)
barley; Dose 0.000001, Day 0
  Sum of % necrosis in barley: C (less than 50% necrosis)
barley; Dose 0.000001, Day 1
  Sum of % necrosis in barley: C (less than 50% necrosis)
barley; Dose 0.000001, Day 3
  Sum of % necrosis in barley: C (less than 50% necrosis)
barley; Dose 0.000001, Day 7
  Sum of % necrosis in barley: C (less than 50% necrosis)
barley; Dose 0.000001, Day 10
  Sum of % necrosis in barley: C (less than 50% necrosis)
barley; Dose 0.000001, Day 14
  Sum of % necrosis in barley: C (less than 50% necrosis)
barley; Dose 0.000001, Day 21
  Sum of % necrosis in barley: C (less than 50% necrosis)
barley; Dose 0.000005, Day 0
  Sum of % necrosis in barley: C (less than 50% necrosis)
barley; Dose 0.000005, Day 1
  Sum of % necrosis in barley: C (less than 50% necrosis)
barley; Dose 0.000005, Day 3
  Sum of % necrosis in barley: C (less than 50% necrosis)
barley; Dose 0.000005, Day 7
  Sum of % necrosis in barley: C (less than 50% necrosis)
barley; Dose 0.000005, Day 10
  Sum of % necrosis in barley: C (less than 50% necrosis)
barley; Dose 0.000005, Day 14
  Sum of % necrosis in barley: C (less than 50% necrosis)
barley; Dose 0.000005, Day 21
  Sum of % necrosis in barley: C (less than 50% necrosis)
barley; Dose 0.00001, Day 0
  Sum of % necrosis in barley: C (less than 50% necrosis)
barley; Dose 0.00001, Day 1
  Sum of % necrosis in barley: C (less than 50% necrosis)
barley; Dose 0.00001, Day 3
  Sum of % necrosis in barley: C (less than 50% necrosis)
barley; Dose 0.00001, Day 7
  Sum of % necrosis in barley: C (less than 50% necrosis)
barley; Dose 0.00001, Day 10
  Sum of % necrosis in barley: C (less than 50% necrosis)
barley; Dose 0.00001, Day 14
  Sum of % necrosis in barley: C (less than 50% necrosis)
barley; Dose 0.00001, Day 21
  Sum of % necrosis in barley: C (less than 50% necrosis)
barley; Dose 0.00005, Day 0
  Sum of % necrosis in barley: C (less than 50% necrosis)
barley; Dose 0.00005, Day 1
  Sum of % necrosis in barley: C (less than 50% necrosis)
barley; Dose 0.00005, Day 3
  Sum of % necrosis in barley: C (less than 50% necrosis)
barley; Dose 0.00005, Day 7
  Sum of % necrosis in barley: C (less than 50% necrosis)
barley; Dose 0.00005, Day 10
  Sum of % necrosis in barley: C (less than 50% necrosis)
barley; Dose 0.00005, Day 14
  Sum of % necrosis in barley: B (50%-80% necrosis)
barley; Dose 0.00005, Day 21
  Sum of % necrosis in barley: B (50%-80% necrosis)
barley; Dose 0.0001, Day 0
  Sum of % necrosis in barley: C (less than 50% necrosis)
barley; Dose 0.0001, Day 1
  Sum of % necrosis in barley: C (less than 50% necrosis)
barley; Dose 0.0001, Day 3
  Sum of % necrosis in barley: C (less than 50% necrosis)
barley; Dose 0.0001, Day 7
  Sum of % necrosis in barley: C (less than 50% necrosis)
barley; Dose 0.0001, Day 10
  Sum of % necrosis in barley: C (less than 50% necrosis)
barley; Dose 0.0001, Day 14
  Sum of % necrosis in barley: C (less than 50% necrosis)
barley; Dose 0.0001, Day 21
  Sum of % necrosis in barley: C (less than 50% necrosis)
barley; Dose 0.0005, Day 0
  Sum of % necrosis in barley: C (less than 50% necrosis)
barley; Dose 0.0005, Day 1
  Sum of % necrosis in barley: C (less than 50% necrosis)
barley; Dose 0.0005, Day 3
  Sum of % necrosis in barley: C (less than 50% necrosis)
barley; Dose 0.0005, Day 7
  Sum of % necrosis in barley: C (less than 50% necrosis)
barley; Dose 0.0005, Day 10
  Sum of % necrosis in barley: C (less than 50% necrosis)
barley; Dose 0.0005, Day 14
  Sum of % necrosis in barley: C (less than 50% necrosis)
barley; Dose 0.0005, Day 21
  Sum of % necrosis in barley: C (less than 50% necrosis)
